# Laboratory results reported in US7368437B1, “Bicyclic heterocycles, processes for their preparation and their use as herbicides and pharmaceutical agents” (Bayer CropScience AG, priority 1999, dated 2008).
# How the values were obtained:
# Xanthomonas oryzae = conditions: stated in the literature; cited from earlier work
SMILES,melting point,action against Xanthomonas oryzae (Xanthomonas oryzae)
"CN(C)c1ncc2nnc([C@@H]3O[C@H](COC(=O)c4ccccc4)[C@@H](OC(=O)c4ccccc4)[C@H]3OC(=O)c3ccccc3)n2n1 [If, 6-Dimethylamino-3-(2′,3′,5′-tri-O-benzoyl-β-ribofuranosyl)-1,2,4-triazolo-[3,4-f]-1,2,4-triazine]",79 to 80 °C,–
"CN(C)c1ncc2nnc([C@@H]3O[C@H](CO)[C@@H](O)[C@H]3O)n2n1 [Ig, 6-Dimethylamino-3-β-ribofuranosyl-1,2,4-triazolo[3,4-f]-1,2,4-triazine]",171 to 173 °C,–
"OC[C@H]1O[C@@H](c2n[nH]c3cncnc23)[C@H](O)[C@@H]1O [Ib, 3-β-D-Ribofuranosyl-1H-pyrazolo[4,3-d]pyrimidine]",227 to 228 °C,fungicidal action
